How the values were obtained:
[1] = molecular target: Calcium/calmodulin-dependent protein kinase type II subunit delta (Homo sapiens) (UniProt Q13557); details: at 10 µM
[2] = molecular target: Mitogen-activated protein kinase kinase kinase 11 (Homo sapiens) (UniProt Q16584); assay: Selectivity interaction (KinomeScan (DiscoverX)) EUB0001079a MAP3K11; details: at 1 µM
[3] = molecular target: Serine/threonine-protein kinase SBK1 (Homo sapiens) (UniProt Q52WX2); assay: Selectivity interaction (Kinase panel (Z-LYTE Assay)) EUB0001632a SBK1; details: at 10 µM
Serine/threonine-protein kinase SBK1 (Homo sapiens), sequence (Q52WX2 whole entry): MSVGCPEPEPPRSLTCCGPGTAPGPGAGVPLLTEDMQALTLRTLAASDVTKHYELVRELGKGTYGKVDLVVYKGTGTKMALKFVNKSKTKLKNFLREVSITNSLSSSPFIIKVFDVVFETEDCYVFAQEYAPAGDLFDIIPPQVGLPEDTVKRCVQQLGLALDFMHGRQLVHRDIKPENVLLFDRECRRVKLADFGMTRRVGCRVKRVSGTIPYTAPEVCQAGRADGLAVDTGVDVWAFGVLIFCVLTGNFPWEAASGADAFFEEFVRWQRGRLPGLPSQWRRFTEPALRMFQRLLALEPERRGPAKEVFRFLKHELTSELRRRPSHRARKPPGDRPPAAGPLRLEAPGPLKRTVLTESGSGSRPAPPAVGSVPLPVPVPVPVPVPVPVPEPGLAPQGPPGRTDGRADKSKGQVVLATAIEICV

[4] = molecular target: T1, Serine/threonine-protein kinase LATS1 (Homo sapiens) (UniProt O95835); assay: Selectivity interaction (KinomeScan (DiscoverX)) EUB0000607a LATS1; details: at 10 µM
T1 sequence (whole entry): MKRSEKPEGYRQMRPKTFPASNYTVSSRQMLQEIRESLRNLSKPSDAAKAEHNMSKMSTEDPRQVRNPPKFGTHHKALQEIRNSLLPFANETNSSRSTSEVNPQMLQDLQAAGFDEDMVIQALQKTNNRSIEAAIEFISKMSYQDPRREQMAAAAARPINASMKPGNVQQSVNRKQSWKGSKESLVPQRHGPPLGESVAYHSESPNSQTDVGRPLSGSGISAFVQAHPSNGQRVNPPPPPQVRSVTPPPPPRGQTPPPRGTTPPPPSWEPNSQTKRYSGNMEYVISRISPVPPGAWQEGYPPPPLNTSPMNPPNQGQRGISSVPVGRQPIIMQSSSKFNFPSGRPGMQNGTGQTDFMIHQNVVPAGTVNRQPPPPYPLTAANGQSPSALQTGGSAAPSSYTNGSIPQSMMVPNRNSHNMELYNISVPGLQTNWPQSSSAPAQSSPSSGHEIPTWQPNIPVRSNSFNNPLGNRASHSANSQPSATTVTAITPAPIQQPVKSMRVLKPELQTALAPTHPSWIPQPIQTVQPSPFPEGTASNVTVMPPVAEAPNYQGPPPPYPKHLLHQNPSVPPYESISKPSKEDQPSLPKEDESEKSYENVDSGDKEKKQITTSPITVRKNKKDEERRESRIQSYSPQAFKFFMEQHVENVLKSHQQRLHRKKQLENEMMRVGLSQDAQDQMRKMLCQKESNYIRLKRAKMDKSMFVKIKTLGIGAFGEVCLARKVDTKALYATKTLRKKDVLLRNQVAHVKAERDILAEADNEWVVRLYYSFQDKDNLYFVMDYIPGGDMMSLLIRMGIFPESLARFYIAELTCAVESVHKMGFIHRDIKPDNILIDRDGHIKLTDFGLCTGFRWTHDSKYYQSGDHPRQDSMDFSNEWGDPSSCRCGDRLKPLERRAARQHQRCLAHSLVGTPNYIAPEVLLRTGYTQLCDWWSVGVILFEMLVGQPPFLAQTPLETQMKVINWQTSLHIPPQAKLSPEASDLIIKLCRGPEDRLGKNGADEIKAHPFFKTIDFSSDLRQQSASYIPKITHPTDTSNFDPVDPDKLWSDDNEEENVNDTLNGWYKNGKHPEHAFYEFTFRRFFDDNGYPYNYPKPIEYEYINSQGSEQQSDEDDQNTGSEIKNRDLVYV

[5] = molecular target: Calcium/calmodulin-dependent protein kinase type II subunit alpha (Homo sapiens, UniProt Q9UQM7); assay: Selectivity interaction (KinomeScan (DiscoverX)) EUB0000607a CAMK2A; details: at 10 µM
Calcium/calmodulin-dependent protein kinase type II subunit alpha, sequence (Q9UQM7 whole entry): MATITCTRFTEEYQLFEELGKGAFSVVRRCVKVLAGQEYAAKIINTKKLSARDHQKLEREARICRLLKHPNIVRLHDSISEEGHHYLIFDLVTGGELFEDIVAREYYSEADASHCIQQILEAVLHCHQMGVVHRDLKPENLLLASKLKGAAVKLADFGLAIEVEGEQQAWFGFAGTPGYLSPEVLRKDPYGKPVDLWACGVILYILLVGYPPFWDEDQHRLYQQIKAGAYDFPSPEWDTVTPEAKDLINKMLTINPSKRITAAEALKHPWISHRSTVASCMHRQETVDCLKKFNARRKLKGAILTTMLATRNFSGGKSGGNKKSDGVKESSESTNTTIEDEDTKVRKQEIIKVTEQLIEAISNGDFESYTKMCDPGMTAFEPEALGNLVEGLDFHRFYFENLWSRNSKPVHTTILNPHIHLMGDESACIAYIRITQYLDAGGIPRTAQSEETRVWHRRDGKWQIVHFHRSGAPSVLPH

[6] = molecular target: Ephrin type-A receptor 5 (Homo sapiens) (UniProt P54756); assay: Selectivity interaction (KinomeScan (DiscoverX)) EUB0000607a EPHA5; details: at 10 µM
Ephrin type-A receptor 5 (Homo sapiens), sequence (P54756 whole entry): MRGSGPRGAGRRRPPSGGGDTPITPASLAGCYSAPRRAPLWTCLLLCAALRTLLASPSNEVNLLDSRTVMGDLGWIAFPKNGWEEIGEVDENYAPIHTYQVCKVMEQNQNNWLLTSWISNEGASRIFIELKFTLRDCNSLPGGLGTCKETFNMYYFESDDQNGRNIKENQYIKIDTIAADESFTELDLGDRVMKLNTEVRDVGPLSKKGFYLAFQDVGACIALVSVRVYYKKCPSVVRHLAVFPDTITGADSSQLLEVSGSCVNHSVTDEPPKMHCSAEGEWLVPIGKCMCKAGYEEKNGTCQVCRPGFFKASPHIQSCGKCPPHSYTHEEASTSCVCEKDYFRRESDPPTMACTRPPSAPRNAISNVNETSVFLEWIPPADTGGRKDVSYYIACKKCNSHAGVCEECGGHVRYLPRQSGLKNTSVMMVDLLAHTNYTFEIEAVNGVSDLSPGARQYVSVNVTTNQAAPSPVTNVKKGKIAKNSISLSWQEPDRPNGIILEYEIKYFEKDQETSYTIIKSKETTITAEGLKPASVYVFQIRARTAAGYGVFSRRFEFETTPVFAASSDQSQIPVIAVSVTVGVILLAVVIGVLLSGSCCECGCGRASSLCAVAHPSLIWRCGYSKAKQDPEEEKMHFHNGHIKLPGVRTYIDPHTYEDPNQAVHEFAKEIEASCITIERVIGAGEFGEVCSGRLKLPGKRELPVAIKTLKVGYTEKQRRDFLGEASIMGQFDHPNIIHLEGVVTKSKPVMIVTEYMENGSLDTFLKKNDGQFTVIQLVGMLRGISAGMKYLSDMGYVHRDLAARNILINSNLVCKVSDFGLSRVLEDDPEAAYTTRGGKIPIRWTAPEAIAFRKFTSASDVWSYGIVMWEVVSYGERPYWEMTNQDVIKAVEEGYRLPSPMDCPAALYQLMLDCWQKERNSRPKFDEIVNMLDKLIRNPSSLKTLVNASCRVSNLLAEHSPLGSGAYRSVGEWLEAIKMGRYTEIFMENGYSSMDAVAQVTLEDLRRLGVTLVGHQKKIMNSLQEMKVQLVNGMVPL

[7] = molecular target: MAP kinase-interacting serine/threonine-protein kinase 2 (Homo sapiens, UniProt Q9HBH9); assay: Selectivity interaction (KinomeScan (DiscoverX)) EUB0000618a MKNK2; details: at 10 µM
MAP kinase-interacting serine/threonine-protein kinase 2, sequence (Q9HBH9 whole entry, looked up): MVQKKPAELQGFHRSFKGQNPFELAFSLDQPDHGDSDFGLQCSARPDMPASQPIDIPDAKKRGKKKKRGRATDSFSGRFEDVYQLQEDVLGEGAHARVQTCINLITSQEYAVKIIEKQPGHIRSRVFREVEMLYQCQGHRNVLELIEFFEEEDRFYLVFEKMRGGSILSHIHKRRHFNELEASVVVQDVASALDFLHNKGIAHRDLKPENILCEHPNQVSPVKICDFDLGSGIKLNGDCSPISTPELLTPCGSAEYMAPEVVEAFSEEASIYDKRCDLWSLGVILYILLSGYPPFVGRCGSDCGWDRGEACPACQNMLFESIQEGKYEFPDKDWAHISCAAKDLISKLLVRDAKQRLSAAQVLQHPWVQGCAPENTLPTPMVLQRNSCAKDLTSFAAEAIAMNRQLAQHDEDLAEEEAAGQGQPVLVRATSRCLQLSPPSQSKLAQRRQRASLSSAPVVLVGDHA

[8] = molecular target: T2, Serine/threonine-protein kinase Nek1 (Homo sapiens) (UniProt Q96PY6); assay: Selectivity interaction (Ambit KINOMEscan and KiNATiv profiling in Jurkat cells) EUB0000090b NEK1; type: cell-based; details: at 1 µM
T2 sequence (whole entry): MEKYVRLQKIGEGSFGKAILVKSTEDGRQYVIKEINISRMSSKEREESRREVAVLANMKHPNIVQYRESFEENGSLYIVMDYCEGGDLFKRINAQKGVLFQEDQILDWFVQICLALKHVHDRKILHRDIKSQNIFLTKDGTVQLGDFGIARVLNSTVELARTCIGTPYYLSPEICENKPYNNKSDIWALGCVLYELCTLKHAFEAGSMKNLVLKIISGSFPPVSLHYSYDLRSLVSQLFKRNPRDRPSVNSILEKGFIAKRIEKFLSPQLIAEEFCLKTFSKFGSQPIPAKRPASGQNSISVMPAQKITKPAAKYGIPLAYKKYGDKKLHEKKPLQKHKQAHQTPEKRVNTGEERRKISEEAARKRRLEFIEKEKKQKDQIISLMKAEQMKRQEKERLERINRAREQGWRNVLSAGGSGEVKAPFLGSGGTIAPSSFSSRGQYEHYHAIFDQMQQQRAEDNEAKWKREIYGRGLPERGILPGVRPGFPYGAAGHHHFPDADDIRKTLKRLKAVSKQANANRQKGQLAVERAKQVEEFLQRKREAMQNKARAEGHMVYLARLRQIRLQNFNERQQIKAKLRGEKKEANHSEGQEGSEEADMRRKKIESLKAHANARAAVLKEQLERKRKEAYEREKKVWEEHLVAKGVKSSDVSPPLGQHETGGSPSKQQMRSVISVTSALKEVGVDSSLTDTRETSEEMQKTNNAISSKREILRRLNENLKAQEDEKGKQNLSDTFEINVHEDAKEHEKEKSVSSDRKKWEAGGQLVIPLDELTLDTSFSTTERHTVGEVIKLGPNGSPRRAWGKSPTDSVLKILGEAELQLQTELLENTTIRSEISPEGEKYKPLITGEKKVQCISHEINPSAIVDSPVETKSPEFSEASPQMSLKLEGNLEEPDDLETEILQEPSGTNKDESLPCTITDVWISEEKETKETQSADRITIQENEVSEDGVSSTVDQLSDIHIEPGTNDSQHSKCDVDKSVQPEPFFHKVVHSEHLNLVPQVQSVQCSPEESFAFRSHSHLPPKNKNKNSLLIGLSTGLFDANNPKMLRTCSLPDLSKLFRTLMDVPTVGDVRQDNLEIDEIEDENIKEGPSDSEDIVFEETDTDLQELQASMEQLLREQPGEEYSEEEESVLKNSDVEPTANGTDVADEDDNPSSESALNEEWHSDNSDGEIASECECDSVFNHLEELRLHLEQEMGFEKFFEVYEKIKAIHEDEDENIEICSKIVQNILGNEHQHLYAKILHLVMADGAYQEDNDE

Calcium/calmodulin-dependent protein kinase type II subunit delta (Homo sapiens), sequence (Q13557 whole entry): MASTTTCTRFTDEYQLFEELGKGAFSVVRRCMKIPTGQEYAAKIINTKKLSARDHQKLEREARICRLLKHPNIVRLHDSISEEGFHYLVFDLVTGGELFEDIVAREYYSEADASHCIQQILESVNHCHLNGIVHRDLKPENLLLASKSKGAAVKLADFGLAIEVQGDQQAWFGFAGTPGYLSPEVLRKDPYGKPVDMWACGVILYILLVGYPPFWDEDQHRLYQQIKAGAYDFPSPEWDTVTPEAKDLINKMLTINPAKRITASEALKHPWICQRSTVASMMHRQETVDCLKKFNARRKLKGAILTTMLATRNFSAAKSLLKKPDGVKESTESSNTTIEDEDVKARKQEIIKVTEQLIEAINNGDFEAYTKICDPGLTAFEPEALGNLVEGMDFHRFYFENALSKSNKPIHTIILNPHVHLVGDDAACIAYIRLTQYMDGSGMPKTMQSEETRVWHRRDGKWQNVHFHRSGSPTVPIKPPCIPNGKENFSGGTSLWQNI
Mitogen-activated protein kinase kinase kinase 11 (Homo sapiens), sequence (Q16584 whole entry, looked up): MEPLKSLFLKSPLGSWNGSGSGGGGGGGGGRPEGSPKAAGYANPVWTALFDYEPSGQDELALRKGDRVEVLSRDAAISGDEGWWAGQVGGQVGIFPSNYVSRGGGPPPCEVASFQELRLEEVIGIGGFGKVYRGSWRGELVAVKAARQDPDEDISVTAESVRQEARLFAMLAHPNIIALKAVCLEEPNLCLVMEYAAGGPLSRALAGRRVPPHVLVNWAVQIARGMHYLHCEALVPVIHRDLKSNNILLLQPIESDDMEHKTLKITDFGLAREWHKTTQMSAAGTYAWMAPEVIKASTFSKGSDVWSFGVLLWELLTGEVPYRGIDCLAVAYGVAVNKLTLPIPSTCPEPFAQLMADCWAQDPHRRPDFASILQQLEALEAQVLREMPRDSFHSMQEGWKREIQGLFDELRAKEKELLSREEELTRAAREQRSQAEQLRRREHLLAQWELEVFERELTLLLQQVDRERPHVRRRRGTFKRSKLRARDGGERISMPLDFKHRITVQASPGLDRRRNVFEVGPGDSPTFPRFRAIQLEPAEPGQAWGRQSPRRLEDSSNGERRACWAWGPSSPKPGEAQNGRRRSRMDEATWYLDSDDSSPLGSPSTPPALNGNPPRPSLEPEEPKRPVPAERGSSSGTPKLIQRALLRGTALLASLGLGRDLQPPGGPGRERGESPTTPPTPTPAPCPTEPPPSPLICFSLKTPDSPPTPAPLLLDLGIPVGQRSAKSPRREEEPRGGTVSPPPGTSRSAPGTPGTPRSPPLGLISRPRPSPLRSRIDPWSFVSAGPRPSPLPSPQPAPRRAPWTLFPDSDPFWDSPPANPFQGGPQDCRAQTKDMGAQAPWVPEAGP

SMILES: CCN(CC)CCCCNc1ncc2cc(-c3cc(OC)cc(OC)c3)c(NC(=O)NC(C)(C)C)nc2n1
- % of control [1]: 100%

SMILES: Nc1cnc(N2CCc3cc(S(=O)(=O)Nc4c(F)cc(Cl)cc4F)cc(N4CCCC4=O)c32)nc1 [TP-020n]
- % of control [2]: 100%

SMILES: Cn1cc(-n2cnc3c(NCc4nc5cc(Cl)c(Cl)cc5[nH]4)nc(N4CCOCC4)nc32)cn1
- % of control [3]: -0.405%

SMILES: CNC(=O)Nc1ccc(-c2nc(N3CC4CCC(C3)O4)c3cnn(C4CCC5(CC4)OCCO5)c3n2)cc1
- % of control [4]: 95%
- % of control [5]: 100%
- % of control [6]: 92%

SMILES: O[C@H]1CC[C@H](Nc2ncc3nc(Nc4c(F)cc(F)cc4F)n([C@H]4CCOC4)c3n2)CC1
- % of control [7]: 100%

SMILES: CN(C)C/C=C/C(=O)Nc1ccc(C(=O)N2CCCC(Nc3ncc(Cl)c(-c4c[nH]c5ccccc45)n3)C2)cc1 (stereo not drawn)
- % of control [8]: 100%
